Some results are limits rather than exact numbers.

The target of series [1] is c-AMP phosphodiesterase (erythrocytes). Briefly: Inhibition of cyclic AMP phosphodiesterase (erythrocyte extract, radiochemical procedure). The class given is biochemical. The settings on record: phosphodiesterase extracted from erythrocytes. As for the experimental part: a) Inhibition of Cyclic AMP Phosphodiesterase
The phosphodiesterase was extracted by mixing the erythrocytes with 4 volumes of 7 mM phosphate buffer, pH7.4, followed by sonification (3×10 sec; 100 W) and then centrifuging for 30 min at 4200×g.
All supernatants were diluted in the extraction medium and assayed for phosphodiesterase activity within 6 hours of preparation, using the radiochemical procedure described in the above mentioned reference.

Series [2] concerns Sephadex induced eosinophilia. The experiment in a line: Sephadex induced blood eosinophilia in the rat. The class given is in vivo. The settings on record: n = 12 or more. As for the experimental part:
b) Induction of blood eosinophilia and the effects of drugs.
Male Charles River Sprague Dawley rats weight between 250 to 300 g were used.
The method used was a modification of that described by Laycock et al (Int. Arch. Appl. Immunol, (1986). 81, 363).
Sephadex G200, particle size 40 to 120 micron, was suspended in isotonic saline at 0.5 mg/ml, and stored for 48 h at 4° C. 1 ml of the suspension was given intravenously to rats on days 0,2 and 5. A control group received saline. The test compound was given before the Sephadex on each occasion, with a contact time expected to give maximum activity at the time of the Sephadex administration. Blood was taken from the tail vein of the rats on day 7 for the determination of total and differential leucocyte counts.
A control group of at least 6 animals was included each time a compound was evaluated. The control group received Sephadex and the vehicle without test compound. The results in the drug treated animals were compared with the control group. Alternatively, if the mean for the control group for any experiment was not statistically different from the mean of the sum of all of the controls groups, then the treated animal results for that experiment were compared with the mean of the sum of all the control groups.
Total and differential leucocyte counts
20 μl samples of blood, taken from the tail vein of the rats, were added to 10 ml of Isoton II and, within 30 min, Zaponin (3 drops) was added, to lyse the erythrocytes. Five minutes later the total cell count was determined using a Coulter Counter Model DN. Differential leucocyte counts were carried out by fixing and staining a blood smear on a microscopic slide with May-Grunwald and Giemsa stains. A minimum of 400 cells were counted on each slide.
Probability values were calculated using the Student's t test.
The effect of the test compound upon Sephadex induced eosinophilia in the rat is set out in Table 3. The test compound was given orally 30 minutes before each injection of Sephadex.

Where [3] appears, read: 25.0 mg/kg orally 30 mins before each Sephadex i.v. injection.

Usually Ki stands for a dissociation constant, usually derived from enzyme kinetics or from competition with a known ligand. A lower Ki goes with higher affinity. Take “1,3-Di-cyclopropylmethyl-8-piperidinyl xanthine [Example 23]”: the inhibition constant Ki in series [1] is 55.9 µM.

Take “1,3-Di-cyclopropylmethyl-8-pyrrolidinyl xanthine [Example 22]”: the Ki in series [1] came out at 29.7 µM.

As to `CCCCn1c(=O)c2[nH]c([N+](=O)[O-])nc2n(CCCC)c1=O` [Example 1, 1,3-Di-n-butyl-8-nitro xanthine], the “% of Control Mean ± SEM (blood eosinophilia)” value (from here on “% of Control Mean ± SEM”) in series [2] (setting [3]) is on record as 109 ± 6 % of Control. Moreover, the Ki in series [1] turned out to be 17 µM.

As for `O=c1c2[nH]c([N+](=O)[O-])nc2n(CC2CC2)c(=O)n1CC1CC1` [Example 2, 1,3-Di-cyclopropylmethyl-8-nitro xanthine], the affinity in series [1], expressed as Ki, was 15.9 µM.

Usually melting point stands for the temperature of the solid-liquid transition. Consider `O=c1c2[nH]c([N+](=O)[O-])nc2n(CC2CCC2)c(=O)n1CC1CCC1` [Example 3], for which the melting point amounted to 220 °C. This molecule showed an inhibitory constant (Ki) in series [1] of 6.1 µM.

On to `O=c1c2[nH]c([N+](=O)[O-])nc2n(CC2CCCC2)c(=O)n1CC1CCCC1` [Example 4], for which the melting point is 148 to 150 °C. The same molecule showed a Ki in series [1] of 4.8 µM.

`O=c1c2[nH]c([N+](=O)[O-])nc2n(CC2CCCCC2)c(=O)n1CC1CCCCC1` [Example 5] showed a melting point of 140 °C. In series [1], affinity was put at a Ki of 5.4 µM.

In the case of `CCCCn1c(=O)c2[nH]c(N)nc2n(CCCC)c1=O.Cl` [Example 7, 1,3-Di-n-butyl-8-amino xanthine hydrochloride], the “% of Control Mean ± SEM” value in series [2] (setting [3]) is reported as 91 ± 6 % of Control. The molecule further gave an inhibition constant Ki in series [1] of 1.3 µM.

In the case of `CCCCn1c(=O)c2[nH]c(N)nc2n(CCCC)c1=O` [Example 8, 1,3-Di-n-butyl-8-amino xanthine], the melting point came out at 89 °C.

Regarding `Nc1nc2c([nH]1)c(=O)n(CC1CC1)c(=O)n2CC1CC1` [Example 9, 1,3-Di-cyclopropylmethyl-8-amino xanthine], the “% of Control Mean ± SEM” value was 61 ± 8 % of Control in series [2] (0.2 mg/kg orally 30 mins before each Sephadex i.v. injection) and 48 ± 7 % of Control in series [2] (2.0 mg/kg orally 30 mins before each Sephadex i.v. injection). Also, the Ki in series [1] was found to be 1.6 µM.

`Nc1nc2c([nH]1)c(=O)n(CC1CCC1)c(=O)n2CC1CCC1` [Example 10]: the melting point is 124 °C (dec.). Moreover, the “% of Control Mean ± SEM” value in series [2] (5.0 mg/kg orally 30 mins before each Sephadex i.v. injection) is given as 47 ± 4 % of Control. The Ki in series [1] came out at 0.53 µM.

With `Nc1nc2c([nH]1)c(=O)n(CC1CCCC1)c(=O)n2CC1CCCC1` [Example 11], the melting point was 300 °C. In series [1], this molecule displayed a Ki of 0.57 µM.

`Nc1nc2c([nH]1)c(=O)n(C1CC1)c(=O)n2C1CC1` [Example 13, 1,3-Di-cyclopropyl-8-amino xanthine]: in series [1], the Ki came to 14 µM.

In series [1], `O=c1c2[nH]c(Cl)nc2n(CC2CC2)c(=O)n1CC1CC1` [Example 17, 1,3-Di-cyclopropylmethyl-8-chloro xanthine] displayed a Ki of 15.1 µM.

As to `O=c1c2[nH]c(Cl)nc2n(C2CCCCC2)c(=O)n1C1CCCCC1` [Example 18, 1,3-Di-cyclohexyl-8-chloro xanthine], the affinity in series [1], expressed as Ki, was 23 µM.

`CCCCn1c(=O)c2[nH]c(N3CCCCC3)nc2n(CCCC)c1=O` [Example 19, 1,3-Di-n-butyl-8-piperidino xanthine]: in series [1], the Ki is under 100 µM.

Consider `O=c1c2[nH]c(N3CCOCC3)nc2n(CC2CC2)c(=O)n1CC1CC1` [Example 20, 1,3-Di-cyclopropylmethyl-8-morpholino xanthine], for which the Ki in series [1] is 11.5 µM.

In series [1], `O=c1c2[nH]c(Br)nc2n(CC2CCCCC2)c(=O)n1CC1CCCCC1` [Example 25, 1,3-Di-cyclohexylmethyl-8-bromo xanthine] yielded a Ki of 7.9 µM.
